These results are taken from publication doi:10.1101/427617v2 (bioRxiv, 2019).

In series [1] the test system is dural lymphatic cells. Kind of series: transferrin-AlexaFluor647 uptake, live cell imaging. The series is classed as cell-based, rat.
Series [2] concerns dural lymphatic cells. Kind of series: pHrodo-dextran uptake, live cell imaging. The series is classed as cell-based, rat. The note with it: 10kD pHrodo-dextran, Dyngo4a at 100-200μM, Fig. 12B, 12D.

On to `O=C(N/N=C/c1cc(O)c(O)cc1O)c1cc2ccccc2cc1O` [Dyngo4a], for which, in the series on dural lymphatic cells [1] (same concentration (100-200μM), Fig. 12C), the “Effect of inhibitor on transferrin-AlexaFluor647 uptake” value was “specifically blocked”. The “Effect of inhibitor on pHrodo dextran uptake” value with dural lymphatic cells [2] is “blocked in dose dependent fashion”.

`CCCCC[C@@H](O)[C@H]1C(=O)O[C@H](C)[C@@H](O)/C=C/C=C/C=C/C=C/C=C(\C)[C@@H](O)C[C@H](O)C[C@H](O)C[C@H](O)C[C@H](O)C[C@H](O)C[C@@H]1O` [filipin]: in the series on dural lymphatic cells [2], the “Effect of inhibitor on pHrodo dextran uptake” value is listed as “blocked uptake”.

Regarding “transferrin-AlexaFluor647: labeled transferrin used to test clathrin-dependent endocytosis”, in the series on dural lymphatic cells [1], the “Uptake of labeled transferrin by lymphatic cells” value is recorded as “avidly took up”.
